Measurements taken from patent US20170304388A1, “NEW INDICATION OF CARDIOVASCULAR DRUGS FOR PREPARATION OF CANCER INHIBITION PHARMACEUTICAL COMPOSITION” (LAUNX BIOMEDICAL CO., LTD., priority 2014, published 2017).
Where a name gives a salt, the structure may show the parent alone.

Experiments:
Assay type in all cases: cell-based
[1] = system: A375 (Amelanotic Melanoma); experiment: Cell viability analysis (WST-1), A375; conditions: WST-1, OD450 nm, lower viability = better inhibition; for viability at 10 µM: Homo sapiens, A-375, 72 h, Table 3, drug 10 μM, read-out: survival rate (viability) of cancer cells, A375; for survival rate (viability) of cancer cells, A375: Table 3, drug 10 μM, 72 hours
[2] = system: cancer cell lines; experiment: Growth inhibitory effects on the panel of cancer cell lines; conditions: drug 10 μM, 72 hours; for Numbers of inhibitory effect on cancer cell line: count of cancer cell lines inhibited; for inhibition effect on different cancer cell lines (in words): WST-1
[3] = system: HCT116 (Colorectal Carcinoma); experiment: Cell viability analysis (WST-1), HCT116; conditions: WST-1, OD450 nm; for viability at 10 µM: Homo sapiens, HCT-116, 72 h, Table 3, drug 10 μM, read-out: survival rate (viability) of cancer cells, HCT116 (WT); for survival rate (viability) of cancer cells, HCT116 (WT): Table 3, drug 10 μM, 72 hours
[4] = system: A549 (Lung Adenocarcinoma); experiment: Cell viability analysis (WST-1), A549; conditions: WST-1, OD450 nm; for viability at 10 µM: Homo sapiens, A549, 72 h, Table 3, drug 10 μM, read-out: survival rate (viability) of cancer cells, A549
[5] = system: TSGH-8301 (Urinary Bladder Carcinoma); experiment: Cell viability analysis (WST-1), TSGH-8301; conditions: WST-1, OD450 nm; for viability at 10 µM: 72 h, Table 3, drug 10 μM, read-out: survival rate (viability) of cancer cells, TSGH; for survival rate (viability) of cancer cells, TSGH: Table 3, drug 10 μM, 72 hours
[6] = system: HeLa (Cervix Adenocarcinoma); experiment: Cell viability analysis (WST-1), HeLa; conditions: Homo sapiens, HeLa, 72 h, Table 3, drug 10 μM, WST-1, OD450 nm, read-out: survival rate (viability) of cancer cells, HeLa
[7] = system: MCF7 (Mammary Gland, Adenocarcinoma); experiment: Cell viability analysis (WST-1), MCF7; conditions: WST-1, OD450 nm; for viability at 10 µM: Homo sapiens, MCF7, 72 h, Table 3, drug 10 μM, read-out: survival rate (viability) of cancer cells, MCF7
[8] = system: MKN-45 (Gastric Adenocarcinoma); experiment: Cell viability analysis (WST-1), MKN-45; conditions: WST-1, OD450 nm; for viability at 10 µM: Homo sapiens, MKN-45, 72 h, Table 3, drug 10 μM, read-out: survival rate (viability) of cancer cells, MKN-45
[9] = system: HL-60 (Acute Promyelocytic Leukemia); experiment: Cell viability analysis (WST-1), HL-60; conditions: Table 3, drug 10 μM, 72 hours, WST-1, OD450 nm; for viability at 10 µM: Homo sapiens, HL-60, read-out: survival rate (viability) of cancer cells, HL-60
[10] = system: LoVo (Colorectal Adenocarcinoma); experiment: Cell viability analysis (WST-1), LoVo; conditions: WST-1, OD450 nm; for viability at 10 µM: Homo sapiens, LoVo, 72 h, Table 3, drug 10 μM, read-out: survival rate (viability) of cancer cells, LoVo
[11] = system: HepG2 (Hepatocellular Carcinoma); experiment: Cell viability analysis (WST-1), HepG2; conditions: WST-1, OD450 nm; for viability at 10 µM: Homo sapiens, HepG2, 72 h, Table 3, drug 10 μM, read-out: survival rate (viability) of cancer cells, HepG2
[12] = system: PC3 (Prostate Adenocarcinoma); experiment: Cell viability analysis (WST-1), PC3; conditions: WST-1, OD450 nm; for viability at 10 µM: 72 h, Table 3, drug 10 μM, read-out: survival rate (viability) of cancer cells, PC3
[13] = system: AGS (Gastric Adenocarcinoma); experiment: Cell viability analysis (WST-1), AGS; conditions: WST-1, OD450 nm; for viability at 10 µM: 72 h, Table 3, drug 10 μM, read-out: survival rate (viability) of cancer cells, AGS
[14] = system: H1650 (Lung Adenocarcinoma); experiment: Cell viability analysis (WST-1), H1650; conditions: WST-1, OD450 nm; for viability at 10 µM: Homo sapiens, NCI-H1650, 72 h, Table 3, drug 10 μM, read-out: survival rate (viability) of cancer cells, H1650

In the case of `NC(=O)c1ncn([C@@H]2O[C@H](CO)[C@@H](O)[C@H]2O)c1N` [Acadesine], the viability at 10 µM [1] is reported as 99.1%, the “Numbers of inhibitory effect on cancer cell line” value (from here on “Numbers of inhibitory effect”) [2] is reported as 0 and the “inhibition effect on different cancer cell lines (in words)” value [2] is reported as “significant inhibition effect”. The viability at 10 µM [3] was 88.7%, the viability at 10 µM [4] was 117% and the viability at 10 µM [5] was 99.7%. It also gave a viability at 10 µM [6] of 88.4%, a viability at 10 µM [7] of 84.7% and a viability at 10 µM [8] of 81.5%. For the same compound, the viability at 10 µM [9] was 110%, the viability at 10 µM [10] was 80.9% and the viability at 10 µM [11] was 103%. It also gave a viability at 10 µM [12] of 94.8% and a viability at 10 µM [13] of 75.4%.

For `Cc1cccc(Nc2ccccc2C(=O)O)c1C` [Mefenamic acid], the viability at 10 µM [1] was 78.7%, the “Numbers of inhibitory effect” value [2] was 0 and the “inhibition effect on different cancer cell lines (in words)” value [2] was “significant inhibition effect”. It also gave a viability at 10 µM [3] of 85.9%, a viability at 10 µM [4] of 116% and a viability at 10 µM [5] of 118%. The viability at 10 µM [14] was 73.9%, the viability at 10 µM [6] was 76.1% and the viability at 10 µM [7] was 95.3%. For the same compound, the viability at 10 µM [8] was 115%, the viability at 10 µM [9] was 113% and the viability at 10 µM [10] was 83.3%. For the same compound, the viability at 10 µM [12] was 103% and the viability at 10 µM [13] was 71.1%.

`CCC(NC(C)C)C(O)c1ccc(O)c(O)c1` (centres unmarked) [Isoetharine Mesylate] was tested, and the viability at 10 µM [1] was 97%, the “Numbers of inhibitory effect” value [2] was 0 and the “inhibition effect on different cancer cell lines (in words)” value [2] was “significant inhibition effect”. For the same compound, the viability at 10 µM [3] was 96.1%, the viability at 10 µM [4] was 76.7% and the viability at 10 µM [5] was 88.3%. It also gave a viability at 10 µM [14] of 91.7%, a viability at 10 µM [6] of 81.6% and a viability at 10 µM [7] of 103%. For the same compound, the viability at 10 µM [8] was 91%, the viability at 10 µM [10] was 100% and the viability at 10 µM [11] was 76.5%. The viability at 10 µM [12] was 71.6% and the viability at 10 µM [13] was 96.6%.

For `CC1Cc2ccccc2N1NC(=O)c1ccc(Cl)c(S(N)(=O)=O)c1` (centres unmarked) [Indapamide (Lozol), Indapamide], the viability at 10 µM [1] was 64.8%, the “Numbers of inhibitory effect” value [2] was 0 and the “inhibition effect on different cancer cell lines (in words)” value [2] was “significant inhibition effect”. For the same compound, the viability at 10 µM [3] was 80%, the viability at 10 µM [4] was 106% and the viability at 10 µM [5] was 85%. It also gave a viability at 10 µM [14] of 86.7%, a viability at 10 µM [6] of 67.9% and a viability at 10 µM [7] of 65.5%. For the same compound, the viability at 10 µM [8] was 105%, the viability at 10 µM [10] was 92.7% and the viability at 10 µM [11] was 84%. For the same compound, the viability at 10 µM [12] was 76.8% and the viability at 10 µM [13] was 109%.

`COc1ccc([C@H]2CNC(=O)C2)cc1OC1CCCC1` [S-(+)-Rolipram] was tested, and the “survival rate (viability) of cancer cells, A375” value [1] was 77.0, the “Numbers of inhibitory effect” value [2] was 0 and the “inhibition effect on different cancer cell lines (in words)” value [2] was “significant inhibition effect”. For the same compound, the “survival rate (viability) of cancer cells, HCT116 (WT)” value [3] was 86.2, the “survival rate (viability) of cancer cells, TSGH” value [5] was 81.1 and the “survival rate (viability) of cancer cells, MCF7” value ([7]; Table 3, drug 10 μM, 72 hours) was 80.4. For the same compound, the “survival rate (viability) of cancer cells, HL-60” value [9] was 107.3, the “survival rate (viability) of cancer cells, LoVo” value ([10]; Table 3, drug 10 μM, 72 hours) was 94.1 and the “survival rate (viability) of cancer cells, HepG2” value ([11]; Table 3, drug 10 μM, 72 hours) was 90.4. The “survival rate (viability) of cancer cells, PC3” value ([12]; Table 3, drug 10 μM, 72 hours) was 89.3.

With Gabexate mesylate the “survival rate (viability) of cancer cells, A375” value [1] was 77.9, the “Numbers of inhibitory effect” value [2] was 0 and the “inhibition effect on different cancer cell lines (in words)” value [2] was “significant inhibition effect”. The “survival rate (viability) of cancer cells, HCT116 (WT)” value [3] was 114.9, the “survival rate (viability) of cancer cells, A549” value ([4]; Table 3, drug 10 μM, 72 hours) was 77.3 and the “survival rate (viability) of cancer cells, TSGH” value [5] was 70.9. For the same compound, the “survival rate (viability) of cancer cells, H1650” value ([14]; Table 3, drug 10 μM, 72 hours) was 69.8, the “survival rate (viability) of cancer cells, MKN-45” value ([8]; Table 3, drug 10 μM, 72 hours) was 81.1 and the “survival rate (viability) of cancer cells, HL-60” value [9] was 117.6. For the same compound, the “survival rate (viability) of cancer cells, AGS” value ([13]; Table 3, drug 10 μM, 72 hours) was 75.0.

In the case of `NCCCCCC(=O)O` [Aminocaproic acid (Amicar), Aminocaproic acid], the viability at 10 µM [1] is reported as 123%, the “Numbers of inhibitory effect” value [2] is reported as 0 and the viability at 10 µM [3] is reported as 114%. The viability at 10 µM [4] was 70.3%, the viability at 10 µM [5] was 71.4% and the viability at 10 µM [14] was 65.4%. It also gave a viability at 10 µM [6] of 90.4%, a viability at 10 µM [7] of 69.2% and a viability at 10 µM [8] of 80.2%. The viability at 10 µM [9] was 93%, the viability at 10 µM [10] was 91.2% and the viability at 10 µM [12] was 79.6%. The viability at 10 µM [13] was 64.8%.
